In PMC4900628, “Critical Evaluation of P2X7 Receptor Antagonists in Selected Seizure Models” (PLoS ONE, 2016):
Read-outs that look alike come from different tables or passages of the source.

Columns and labels:
[1] = test system: PTZ-induced generalized clonic seizures; experiment: Pentylenetetrazol seizure threshold test (PTZ-T); format: in vivo
Protocol: Unrestrained mice, placed in separate full-view Plexiglas cages, were injected with the convulsant drug PTZ, a non-competitive GABAA receptor antagonist, at a dose of 87 mg/kg s.c. in the neck and the appearance of the first generalized clonus (repeated clonic seizures of the fore- and hindlimbs lasting ≥3 s with an accompanying loss of righting reflex) was recorded during individual observation for 30 min (see [69]). […] Group sizes of 12 mice were used in all experiments. Control groups, which received vehicle, were tested together with the compound-treated group on the same experimental day. The number of animals in the group with a generalized clonic seizure and the latency time to its onset were analysed for statistical significance. In the absence of seizures within 30 min, the latency was taken as 1800 s.
For the seizure tests (MES-T, PTZ-T, PTZ-kindling), BBG and TIIAS was dissolved in polyethylene glycol (PEG BioUltra, 400, Sigma-Aldrich), diluted to 20% with aqua (aqua ad iniectabilia, Braun, Melsungen, Germany). AFC was solubilized in ≥97% N,N-dimethylacetamide (DMA, Sigma-Aldrich), vortexed and diluted with 45% 2-hydroxypropyl-ß-cyclodextrin (ß-CD, Sigma-Aldrich) (final ratio of the vehicle 1:9). JNJ-47965567 was solubilized in two equivalents of 1N HCl, vortexed and sonicated (until the compound was mostly diluted) and then 30% of sulfobutylether-ß-cyclodextrin (SBE-ß-CD, Toronto Res. Chemicals, Toronto, Canada) was slowly added. The pH was adjusted with 1N NaOH (similar amount of NaOH as HCl), all with continuous stirring. PTZ was dissolved in 0.9% NaCl-solution, carbamazepine, ethosuximide and Ca-valproate were administered in a 2% (w/v) suspension of hydroxyethylcellulose. The drug solutions or suspensions were prepared immediately before use; all doses refer to the salts. Animals in the control group received equivalent volumes of the vehicle (in mice always 10 ml/kg, in rats 1 ml/kg [JNJ], 3 ml/kg [AFC] or 4 ml/kg [BBG, TIIAS], depending on the solubility of the different compounds). Doses and peak time effects were selected on the basis of effective doses from corresponding in vivo studies in the literature: BBG (e.g.), tanshinone IIA (e.g.) and from manufacturer’s experimental data: AFC, JNJ (see, [80]).
Data were analysed using SigmaPlot (vers. 12.0, Systat Software, Erkrath, Germany) and SPSS (IBM SPSS Statistics 20, Ehningen, Germany), respectively. Results are expressed as mean ± SEM. In the fluorometric Ca^2+ assays, concentration-response curves were fitted by using a 4-parameter logistic function (Hill slope, Emin, Emax, IC50). […] In the MES-T, the current intensity inducing tonic hindlimb extensions in 50% of the mice (CC50 values with confidence limits for 95% probability) and the statistical significance was calculated using Probit analysis (SPSS). In the case of multiple comparisons between different groups α-correction was performed so that only differences with a P value of < 0.01 were considered significant. In the PTZ-T, the number of animals in the group with clonic seizures and the latency time were analysed using Fisher's exact probability test and the Mann-Whitney rank sum test, respectively. For multiple comparisons of the latency time a one-way ANOVA with the Holm-Sidak post hoc test was used. The influence of AFC on the plasma and brain concentrations of the antiepileptic drugs was statistical compared using the same procedure. In the PTZ-kindling model, the mean seizure stage within a group was calculated in relation to the number of PTZ-injections. Statistical comparison between vehicle- and compound-treated groups in this model was performed with two-way repeated measures ANOVA, followed by the Holm-Sidak post hoc test. The mean number of PTZ-injections needed to produce the first generalized seizure (≥ stage 3 convulsions) in the vehicle- versus compound-treated groups was statistically compared using a Mann-Whitney rank sum test.

[2] = Plasma and brain concentration in rats (after PTZ-kindling); format: in vivo; conditions: 30 mg/kg i.p.
Protocol: One day after kindling procedure, selected rats (groups with n ≥ 5) were again pre-treated with the compounds of interest and sacrificed at the assumed peak times of brain concentration by CO2 inhalation. Blood was collected intracardially by heart centesis via glass pipettes supplemented with heparin-Na (ratiopharm, Ulm, Germany; 10μl of 5.000 I.U./ml) and separated by centrifuging (1500xg for 10 min) at 6–8°C. The plasma was stored at -20°C in plastic tubes. After blood sample collection, rats were decapitated and brains were quickly dissected. After removing the adherent blood by tissue paper and cutting off the cerebellum, the samples were fresh frozen using liquid nitrogen. Brain tissue was stored at -80°C and delivered to the different laboratories on dry ice. For mice (groups with n = 6), a similar procedure was used for the preparation of plasma and brain samples. In experiments in which AFC was co-administered with carbamazepine or ethosuximide, drug concentrations in plasma and brain were estimated to detect potential pharmacokinetic interactions.
Samples from experiments with AFC were analysed at the Lead Discovery Center (Dortmund, Germany). Briefly, AFC, carbamazepine and ethosuximide were extracted from plasma and homogenized brain by protein precipitation using acetonitrile. Resulting filtrates were analysed by liquid chromatography tandem-mass spectrometry (LC-MS/MS) using a Prominence UFLC system (Shimadzu, Duisburg, Germany) coupled to a QTrap 5500 instrument (ABSciex, Darmstadt, Germany). The compounds were separated on a Zorbax Eclipse Plus C18 column (Agilent Technologies, Santa Clara, CA, USA) with an acetonitrile/water gradient containing 0.1% formic acid as solvent. Chromatographic conditions and mass spectrometer parameters were optimized for each analyte. Plasma and brain concentrations of the compounds were calculated by means of a standard curve.
Plasma and brain samples from experiments with JNJ-47965567 were quantified at the Neuroscience Therapeutic Area, Janssen Research & Development (San Diego, CA, USA) using an API 4000 MS/MS system (Applied Biosystems, Concord, ON, Canada) interfaced with an Agilent 1100 Series HPLC (Agilent Technologies). To measure the percentage of P2X7R brain occupancy of JNJ-47965567, ex vivo receptor binding autography was performed as recently described. Briefly, 20 μm-thick hippocampal slices were prepared and P2X7R radioligand binding was determined at room temperature with 10 nM [^3H] JNJ-54232334 (Janssen) in 50 mM Tris-HCl incubation buffer containing 0.1% bovine serum albumin. The non-specific binding was measured using adjacent sections incubated in the additional presence of 100 μM A-740003 (Tocris Bioscience, Bristol UK). Sections were incubated for 1 min, washed in ice-cold incubation buffer (4 times, 5 min each), followed by two dips in deionized water and rapidly dry under a stream of cold air before acquisition. Quantitative analysis was performed using the Tracer ß-Imager with M3 Vision software (Biospace Lab, Paris, France). Ex vivo receptor labelling was expressed as the percentage of receptor labelling in corresponding brain areas of vehicle-treated control animals.

SMILES: Cc1c(S(=O)(=O)[O-])oc2c1C(=O)C(=O)c1c-2ccc2c1CCCC2(C)C.[Na+] [Tanshinone TIIAS, tanshinone IIS sulfonic sodium]
- # of mice/ with seizure ([1]; 30 mg/kg i.p. 45 min before PTZ 87 mg/kg s.c.): 12/11
- Cases of death (within 30 min) ([1]; mice, n=12, 30 mg/kg i.p. 45 min before PTZ 87 mg/kg s.c.): 0
- Latency to the first gen. Clonus ([1]; mice, 30 mg/kg i.p. 45 min before PTZ 87 mg/kg s.c., mean ± SEM): 10.08 ± 2.64 min
- Latency to the first gen. clonus (% of control) ([1]; mice, 30 mg/kg i.p. 45 min before PTZ 87 mg/kg s.c., vehicle 5.00 ± 1.04 min): 201.6 ± 52.8%
- latency to the onset of the first clonic seizures at higher doses ([1]; mice, compounds alone, PTZ 87 mg/kg s.c.): tended to increase the latency
- mean brain concentration ([2]; 45 min before, n = 5): 500 ± 100 nM
- concentration at 45 min ([2]; rat, brain, ip, after 45 min, read-out: rat brain concentration): 500 nM
- Kp at 0.75 h ([2]; rat, brain, ip, 30 mg/kg, 45 min, read-out: brain to plasma ratio): 0.02
- concentration at 45 min ([2]; rat, plasma, ip, 45 min before, n = 5, read-out: mean blood plasma concentration): 31100 ± 5900 nM
